From patent US11357246B2, “High intensity sweeteners” (Firmenich Incorporated, priority 2015, dated 2022)

Assays:
[1] = Paired comparison testing (2-AFC) of sweet intensity versus 300 ppm Rebaudioside A by trained panelists; type: in vivo; conditions: for Sample selected as sweeter by panelists, Total: LSB pH ~7.1; for Sweetness compared with 300 ppm Rebaudioside A (2-AFC): 0.25 mL sample, LSB pH ~7.1, 0% ethanol
Experimental: Paired comparison tests (2-Alternative Forced Choice difference tests, i.e., 2-AFC) were used to determine sweet intensity equivalence between samples prepared with Rebaudioside A and the test sweet compound. Trained external panelists were used for the taste tests.
2-AFC tests, compound solutions were tested against 300 ppm Rebaudioside A to determine how they matched in sweet intensity. Panelists tasted both samples and indicated which sample was sweeter in each pair. Panelists rinsed their mouths with water prior to starting any test. Samples were presented to panelists in randomized, counterbalanced pairs and were labeled with 3-digit blinding codes. Panelists rinsed with water between samples as well as between pairs. There was a 90 second delay to clear the mouth of any tastes after each pair evaluation. Three replicates of each test were performed.
The 2-AFC data was analyzed to determine significant differences between 300 ppm Rebaudioside A and compound solutions using a probability table for a two-tailed test (alpha=0.05).
The paired comparison testing was performed using a 0.25 mL sample size, and all samples were made with Low Sodium Buffer (LSB) pH ˜7.1 and contain 0% ethanol.

hT1R2/hT1R3 = biological target: T1, hT1R2/hT1R3 (Homo sapiens, UniProt Q7RTX0+Q8TE23); assay: HTS-Sweet: FLIPR calcium fluorometric imaging assay in cells stably expressing the human sweet taste receptor and a promiscuous G protein; type: cell-based
T1 construct: expressed in transfected cells; parental cells lack the receptor
T1 sequence (Q8TE23 20-839): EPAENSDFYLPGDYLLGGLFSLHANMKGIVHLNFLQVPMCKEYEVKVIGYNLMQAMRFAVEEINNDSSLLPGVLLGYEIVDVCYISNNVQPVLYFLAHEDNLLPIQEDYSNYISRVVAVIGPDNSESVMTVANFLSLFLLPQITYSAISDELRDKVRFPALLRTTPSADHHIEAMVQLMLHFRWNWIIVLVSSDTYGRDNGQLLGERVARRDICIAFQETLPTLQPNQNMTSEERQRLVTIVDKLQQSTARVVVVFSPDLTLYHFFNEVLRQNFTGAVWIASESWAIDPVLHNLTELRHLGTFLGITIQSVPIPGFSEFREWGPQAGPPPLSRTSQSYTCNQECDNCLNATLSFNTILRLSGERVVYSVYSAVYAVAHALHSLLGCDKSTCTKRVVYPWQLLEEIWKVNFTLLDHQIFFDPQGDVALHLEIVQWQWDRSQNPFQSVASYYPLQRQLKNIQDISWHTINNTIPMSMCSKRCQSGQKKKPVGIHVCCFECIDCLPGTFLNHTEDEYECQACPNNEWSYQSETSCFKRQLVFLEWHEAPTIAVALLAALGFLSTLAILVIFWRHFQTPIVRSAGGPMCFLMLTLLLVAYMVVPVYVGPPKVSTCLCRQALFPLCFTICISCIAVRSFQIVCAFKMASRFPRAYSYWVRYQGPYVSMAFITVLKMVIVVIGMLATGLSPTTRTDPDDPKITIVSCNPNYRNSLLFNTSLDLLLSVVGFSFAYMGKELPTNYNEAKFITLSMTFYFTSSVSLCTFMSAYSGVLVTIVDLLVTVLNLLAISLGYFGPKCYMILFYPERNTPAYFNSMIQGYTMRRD
T1 sequence (Q7RTX0 21-852): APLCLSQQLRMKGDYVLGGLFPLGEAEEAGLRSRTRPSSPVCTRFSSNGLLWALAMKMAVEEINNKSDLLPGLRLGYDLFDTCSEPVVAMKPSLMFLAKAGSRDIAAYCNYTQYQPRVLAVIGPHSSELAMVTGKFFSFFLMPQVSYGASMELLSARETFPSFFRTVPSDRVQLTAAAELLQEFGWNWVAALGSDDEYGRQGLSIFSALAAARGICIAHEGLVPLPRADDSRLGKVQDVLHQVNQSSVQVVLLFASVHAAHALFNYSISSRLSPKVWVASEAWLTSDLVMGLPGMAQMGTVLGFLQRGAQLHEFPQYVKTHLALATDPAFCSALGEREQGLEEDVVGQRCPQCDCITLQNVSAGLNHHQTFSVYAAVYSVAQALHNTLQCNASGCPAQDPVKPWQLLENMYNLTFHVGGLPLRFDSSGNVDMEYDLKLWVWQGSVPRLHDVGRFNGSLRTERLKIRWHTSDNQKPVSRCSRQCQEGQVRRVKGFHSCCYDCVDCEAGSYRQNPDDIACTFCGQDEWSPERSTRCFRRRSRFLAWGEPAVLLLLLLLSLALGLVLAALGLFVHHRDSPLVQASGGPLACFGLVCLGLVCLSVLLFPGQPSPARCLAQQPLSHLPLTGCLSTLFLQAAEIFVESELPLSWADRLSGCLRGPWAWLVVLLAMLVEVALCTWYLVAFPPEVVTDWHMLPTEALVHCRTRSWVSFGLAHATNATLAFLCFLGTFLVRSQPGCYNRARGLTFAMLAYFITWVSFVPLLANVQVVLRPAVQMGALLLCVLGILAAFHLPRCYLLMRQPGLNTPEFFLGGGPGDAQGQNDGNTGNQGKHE
Experimental: Compound activity (EC50) was determined using an automated fluorometric imaging assay on a FLIPR instrument (Fluorometric […] Plate Reader, Molecular Devices, Sunnyvale, Calif.). Cell stably expressing the human sweet taste receptor and a promiscuous G protein were seeded into 384-well plates (at approximately 40,000 cells per well). Cells were grown for 24 hours at 37° C. Cells were then loaded with the calcium dye Fluo-4AM (Molecular Probes, Eugene, Oreg.), 4 μM in a phosphate buffered saline (D-PBS) (Invitrogen, Carlsbad, Calif.), for 1 hour at room temperature. After replacement with 25 μl D-PBS, stimulation was performed in the FLIPR instrument and at room temperature by the addition of 25 μl D-PBS supplemented with different stimuli at concentrations corresponding to twice the desired final level. Receptor activity was quantified by determining the maximal fluorescence increases (using a 480 nm excitation and 535 nm emission) after normalization to basal fluorescence intensity measured before stimulation.
For dose-responses analysis, stimuli were presented in duplicates at 10 different concentrations ranging from 0.4 μM to 200 μM. EC50 s were determined using a non-linear regression algorithm, where the Hill slope, bottom asymptotes and top asymptotes were allowed to vary.

[2] = 250 ppm Compound 18 vs 300 ppm Rebaudioside A, n = 36 (12 panelists × 3 reps), p-value 0.681
[3] = 300 ppm Compound 1 vs 300 ppm Rebaudioside A, n = 45 (15 panelists × 3 reps), p-value 0.072
[4] = 300 ppm Compound 18 vs 300 ppm Rebaudioside A, n = 42 (14 panelists × 3 reps), p-value 0.044

SMILES	Sample selected as sweeter by panelists, Total [1, 2]	Sample selected as sweeter by panelists, Total [1, 3]	Sample selected as sweeter by panelists, Total [1, 4]	Sweetness compared with 300 ppm Rebaudioside A (2-AFC) ([1]; test compound at 250 ppm)	Sweetness compared with 300 ppm Rebaudioside A (2-AFC) ([1]; test compound at 300 ppm)	EC50 (hT1R2/hT1R3) [µM]
C=C1C[C@@]23CC[C@H]4[C@@](C)(CCC[C@@]4(C)C(=O)O[C@@H]4O[C@H](CO)[C@@H](O)[C@H](O)[C@H]4O)[C@@H]2CC[C@]1(O[C@@H]1O[C@H](CO)[C@@H](O)[C@H](O[C@@H]2O[C@H](CO)[C@@H](O)[C@H](O)[C@H]2O)[C@H]1O[C@@H]1O[C@H](CO)[C@@H](O)[C@H](O)[C@H]1O)C3 [Rebaudioside A, reference compound]	16	29	14	–	–	–
C[C@H](CC[C@@H](O[C@@H]1O[C@H](CO)[C@@H](O)[C@H](O)[C@H]1O[C@@H]1O[C@H](CO)[C@@H](O)[C@H](O[C@@H]2O[C@H](CO)[C@@H](O)[C@H](O)[C@H]2O)[C@H]1O)C(C)(C)O)C1CC[C@@]2(C)C3CC=C4C(CC[C@H](O[C@@H]5O[C@H](CO)[C@@H](O)[C@H](O[C@@H]6O[C@H](CO)[C@@H](O)[C@H](O)[C@H]6O)[C@H]5O)C4(C)C)[C@]3(C)[C@H](O)C[C@]12C (stereo partly shown) [Compound 18]	20	–	28	not significantly different in sweetness	significantly sweeter	–
C[C@H](CC[C@@H](O[C@@H]1O[C@H](CO)[C@@H](O)[C@H](O)[C@H]1O[C@@H]1O[C@H](CO)[C@@H](O)[C@H](O)[C@H]1O)C(C)(C)O)C1CC[C@@]2(C)C3CC=C4C(CC[C@H](O[C@@H]5O[C@H](CO)[C@@H](O[C@@H]6O[C@H](CO)[C@@H](O)[C@H](O)[C@H]6O)[C@H](O)[C@H]5O)C4(C)C)[C@]3(C)[C@H](O)C[C@]12C (stereo partly shown) [Compound 1]	–	16	–	–	not significantly different in sweetness	–
C[C@H](CC[C@@H](O[C@@H]1O[C@H](CO[C@H]2O[C@H](CO)[C@@H](O)[C@H](O)[C@H]2O)[C@@H](O)[C@H](O)[C@H]1O[C@@H]1O[C@H](CO)[C@@H](O)[C@H](O)[C@H]1O)C(C)(C)O)C1CC[C@@]2(C)C3CC=C4C(CC[C@H](O[C@@H]5O[C@H](CO[C@@H]6O[C@H](CO)[C@@H](O)[C@H](O)[C@H]6O)[C@@H](O)[C@H](O)[C@H]5O)C4(C)C)[C@]3(C)[C@H](O)C[C@]12C (stereo partly shown) [Compound 23]	–	–	–	–	–	< 17
